Consider two molecules from ChEMBL document CHEMBL1148109, “Nobiloside, a new neuraminidase inhibitory triterpenoidal saponin from the marine sponge Erylus nobilis” (J Nat Prod, 2002).

Assay [1] has as its target T1, Sialidase (Clostridium perfringens) (UniProt P10481).
T1 sequence (whole entry): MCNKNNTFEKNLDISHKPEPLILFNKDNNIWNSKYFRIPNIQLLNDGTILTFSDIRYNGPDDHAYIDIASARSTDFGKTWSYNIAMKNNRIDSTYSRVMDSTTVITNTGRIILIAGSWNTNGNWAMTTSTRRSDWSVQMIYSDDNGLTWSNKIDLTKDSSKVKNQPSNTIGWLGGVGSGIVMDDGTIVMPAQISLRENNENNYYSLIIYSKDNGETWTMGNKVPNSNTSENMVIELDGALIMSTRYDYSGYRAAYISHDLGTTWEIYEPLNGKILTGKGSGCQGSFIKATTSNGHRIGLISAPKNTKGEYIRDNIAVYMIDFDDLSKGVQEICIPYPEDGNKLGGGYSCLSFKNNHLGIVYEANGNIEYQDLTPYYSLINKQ
Put plainly: Inhibition of Clostridium perfringens neuraminidase at 100 ug/mL.

Another assay has as its target T2, Sialidase (Clostridium perfringens, UniProt P10481).
T2 sequence (P10481 whole entry): T1 sequence (whole entry)
Put plainly: Inhibition of Clostridium perfringens neuraminidase.

SMILES strings stand for the structures. Activity calls are given as the source filed them. The calls are words filed in the database; no cut-off is given here.

`COC(=O)[C@H]1O[C@@H](O[C@H]2[C@H](O)[C@@H](O)[C@H](O[C@H]3CC[C@]4(C)C5=C(CC[C@H]4C3(C)C)[C@]3(C(=O)OC)CC[C@H]([C@H](C)CCC=C(C)C)[C@@]3(C)CC5)O[C@@H]2C(=O)OC)[C@H](O)[C@@H](O[C@@H]2OC[C@H](O)[C@H](O)[C@H]2O)[C@H]1O`: the outcome in assay [1] was inactive. With `CC(C)=CCC[C@@H](C)[C@H]1CC[C@@]2(C(=O)O)C3=C(CC[C@]12C)[C@@]1(C)CC[C@H](O[C@@H]2O[C@H](C(=O)O)[C@@H](O[C@@H]4O[C@H](C(=O)O)[C@H](O)[C@H](O[C@@H]5OC[C@H](O)[C@H](O)[C@H]5O)[C@H]4O)[C@H](O)[C@H]2O)C(C)(C)[C@@H]1CC3` [NOBILOSIDE], half-maximal inhibition at Sialidase (IC50) required 0.489 µM.
